This data set is described as follows: In vitro permeation study in Franz cell. It counts as in vitro ADME. The settings on record: receiver pH 7.4.

Each structure is given as a SMILES string.

Excerpt: These studies have been carried out using the most commonly used model in in vitro permeation studies. It is the Franz cell which is made up of two compartments separated by a membrane:
a donor compartment in which the composition to be studied is placed,
a membrane preimpregnated with a lipidic solution, made up of a mixture of phospholipids,
a receiver compartment containing an aqueous solution buffered at pH 7.4 under constant agitation, in which the active principle is recovered at regular intervals. Depending on the case, the composition of the medium can vary with the physico-chemical characteristics of the molecule.
These permeation studies were carried out by comparing each dispersed system comprising the lipoamino acid(s) with a simple solution of active principle.
The permeation expresses an active principle quantity which diffuses through a membrane per unit of surface and time (μg/cm^2/h).

The compound `Nc1nc2c(ncn2COCCO)c(=O)[nH]1` [Aciclovir] yielded a Permeation (time 0 hours, aciclovir, topical-route system of Example 6 vs simple solution of active principle) of 0 μg/cm^2/h; a Permeation (time 1 hour, aciclovir, topical-route system of Example 6 vs simple solution of active principle) of 2.35 μg/cm^2/h; a Permeation (time 2 hours, aciclovir, topical-route system of Example 6 vs simple solution of active principle) of 4.65 μg/cm^2/h; a Permeation (time 3 hours, aciclovir, topical-route system of Example 6 vs simple solution of active principle) of 5.80 μg/cm^2/h.
In the case of `CC(=O)[C@H]1CC[C@H]2[C@@H]3CCC4=CC(=O)CC[C@]4(C)[C@H]3CC[C@]12C` [Progesterone], the Permeation is, setting by setting: (time 0 hours, progesterone, oral-route system of Example 3 vs simple solution of active principle) 0 μg/cm^2/h; (time 0 hours, progesterone, transdermic-route system of Example 4 vs simple solution of active principle) 0 μg/cm^2/h; (time 1 hour, progesterone, oral-route system of Example 3 vs simple solution of active principle) 0.2 μg/cm^2/h; (time 1 hour, progesterone, transdermic-route system of Example 4 vs simple solution of active principle) 0.25 μg/cm^2/h; (time 2 hours, progesterone, oral-route system of Example 3 vs simple solution of active principle) 0.4 μg/cm^2/h; (time 2 hours, progesterone, transdermic-route system of Example 4 vs simple solution of active principle) 0.43 μg/cm^2/h. Besides, the Permeation by setting is: (time 3 hours, progesterone, oral-route system of Example 3 vs simple solution of active principle) 0.8 μg/cm^2/h; (time 3 hours, progesterone, transdermic-route system of Example 4 vs simple solution of active principle) 0.85 μg/cm^2/h.
